One test concerns Ras. Kind of test: Ras activity pull-down in H2122 xenograft tumors. In kind it is in vivo, human. Conditions: BQU57 treated H2122 tumors, 3 h post-dose. An excerpt:
Activity assay kits for Ras (#BK008) and RhoA (#BK036) were obtained from Cytoskeleton (Denver, Colo.). We used an ELISA for Ral activity based on selective binding of active RalA-GTP to its effector protein RalBP1.
Finally, we evaluated Ral GTPase activity in vivo in the H2122 xenografts. Nude mice were inoculated with 5×10^6 cells H2122 cells s.c. at four sites per mice. Tumor size reached an average of 250 mm^3 in ten days, at which time mice were given a signal i.p. dose of RBC8 or BQU57 at various concentrations. Tumors were then collected 3 h after injection of RBC8 or BQU57. RalA and RalB activity in tumor samples were then measured using the RalBP1 pull-down assay kit (Millipore #14-415). Ras and RhoA activity in tumor samples were measured using the respective pull-down assay kits. All the activity assays used western blotting as the final readout. For quantification of the immunoblots, the bands on each blot were first normalized to their respective internal control (10 ng of recombinant Ral, Ras, or […] protein run in the last lane) the numbers were then compared across different blots, each of which represented one treatment condition. Mice bearing H2122 tumors (median size 250 mm^3) were given a single intraperitoneal dose of RBC8 (50 mg/kg) or BQU57 (10/20/50 mg/kg) and tumors collected 3 h post-dose.
A general note: Xenograft models place foreign cells or tissue in a host animal.

Another test concerns the target T1, RalB-GDP (Homo sapiens, UniProt P11234, Q72L).
T1 construct: made in house
T1 sequence (P11234 1-206 Q72L): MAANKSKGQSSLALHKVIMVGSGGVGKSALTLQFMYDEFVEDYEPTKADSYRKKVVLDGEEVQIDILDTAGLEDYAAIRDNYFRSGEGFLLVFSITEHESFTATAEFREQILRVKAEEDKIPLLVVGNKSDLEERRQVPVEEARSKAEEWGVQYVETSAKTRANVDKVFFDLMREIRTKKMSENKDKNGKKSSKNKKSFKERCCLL
As to the kind of experiment: Differential scanning fluorometry (DSF). In kind it is binding. As to conditions: 10 μM RalB-GDP, 1% DMSO. The protocol: Differential scanning fluorometry (DSF) was used to evaluate binding between compounds and RalB-GDP. The melting temperature was measured by monitoring the increase of SYPRO orange that binds to hydrophobic regions of the protein. DSF was performed by preparing a plate containing 10 μM RalB-GDP and 10 μM RalB-GPNPP, 4×SYPRO orange in 20 mM Tris PH 8.0, 200 mM NaCl, 2.5 mM MgCl2 and 1 mM DTT buffer. Test compound was added to each well ensuring that the final concentration of DMSO was 1% across all samples. The thermal melting curves were obtained on a Light cycler 480 (Roche). The melting temperature was obtained by normalizing the curves and obtaining the temperature at the midpoint of the transition curve.

The record followed here is patent US11472812B2, “Anti-cancer compounds targeting Ral GTPases and methods of using the same” (The Regents of the University of Colorado, a body corporate, priority 2014, dated 2022).

Consider `Cc1nn(C)c2c1C(c1ccc(C(F)(F)F)cc1)C(C#N)=C(N)O2` (centres unmarked) [BQU57, 6-amino-1,3-dimethyl-4-(4-(trifluoromethyl)phenyl)-1,4-dihydropyrano[2,3-c]pyrazole-5-carbonitrile], for which the “inhibition of Ras activity in tumors” value in the test on Ras is “no significant inhibition”. Moreover, at RalB-GDP, the “binding to RalB-GDP by DSF (melting temperature)” value is recorded as “dose-dependent binding”.
